The values below are quoted from earlier work in US20120309847A1, “DOSING REGIMENS AND METHODS FOR TREATING OR PREVENTING PROMYELOCYTIC LEUKEMIA” (NBI Pharmaceuticals, Inc., priority 2011, published 2012).

Data set [1] has as its system APL. The conditions noted are these: ATRA combined with anthracycline based chemotherapy; cited from earlier work.
Data set [2] deals with APL. Conditions: enocitabine 100-200 mg/m^2 continuous infusion 7 days combined with daunorubicin i.v. 3 days; cited from earlier work.

As for `CC1=C(/C=C/C(C)=C/C=C/C(C)=C/C(=O)O)C(C)(C)CCC1` [ATRA, all-trans retinoic acid], the “clinical remission, share of patients” value in the data set on APL [1] is recorded as “approximately 90%”. For the molecule `CCCCCCCCCCCCCCCCCCCCCC(=O)Nc1ccn([C@@H]2O[C@H](CO)[C@@H](O)[C@@H]2O)c(=O)n1` [enocitabine], the long-term disease-free survival in the data set with APL [2] is given as about 30%.
